Results: BindingDB's records for doi:10.1021/cb500177c (University of Bern, 2014)

Experiments:
Cannabinoid receptor 2 = Cannabinoid receptor 2 (Homo sapiens, UniProt P34972); assay: CB1 & 2 Binding Assays; settings: pH 7.4; 30 °C
Cannabinoid receptor 1 = Cannabinoid receptor 1 (Homo sapiens, UniProt P21554); assay: CB1 & 2 Binding Assays; settings: pH 7.4; 30 °C
[1] = target: T1, Fatty-acid amide hydrolase 1 (Homo sapiens, UniProt O00519); assay: FAAH Activity Assay; settings: pH 7.6; 37 °C
T1 sequence (O00519 whole entry): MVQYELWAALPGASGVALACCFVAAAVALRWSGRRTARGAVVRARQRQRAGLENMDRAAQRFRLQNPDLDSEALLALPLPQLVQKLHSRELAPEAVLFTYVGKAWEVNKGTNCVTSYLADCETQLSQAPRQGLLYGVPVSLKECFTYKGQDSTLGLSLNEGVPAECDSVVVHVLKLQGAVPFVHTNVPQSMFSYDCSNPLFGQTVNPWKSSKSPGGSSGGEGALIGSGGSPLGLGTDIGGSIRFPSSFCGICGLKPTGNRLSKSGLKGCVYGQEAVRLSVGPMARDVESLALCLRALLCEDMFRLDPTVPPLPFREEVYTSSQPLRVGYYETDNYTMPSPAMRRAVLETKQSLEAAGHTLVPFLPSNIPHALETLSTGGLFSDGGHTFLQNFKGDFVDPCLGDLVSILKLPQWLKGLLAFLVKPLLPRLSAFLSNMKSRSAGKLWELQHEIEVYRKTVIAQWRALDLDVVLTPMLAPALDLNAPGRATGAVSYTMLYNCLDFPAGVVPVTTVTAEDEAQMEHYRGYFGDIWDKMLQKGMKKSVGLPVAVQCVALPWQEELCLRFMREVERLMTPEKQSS
Method: In this assay, 0.05 Units of hFAAH was pre-incubated for 30 min at 37 C with 2 uL of 11a, 11b, 11f at different concentrations (0.01 - 100 uM) or vehicin 196 uL of assay buffer (10 mM Tris-HCl, 1 mM EDTA (pH 7.6) and 0.1% w/v fatty acid-free BSA). 2 uL of AEA/[3H]-AEA mixture was added to the solution (final concenttion in assay was 10 nM) and incubated for 15 min at 37 C.

Sequence of Cannabinoid receptor 2 (P34972 whole entry): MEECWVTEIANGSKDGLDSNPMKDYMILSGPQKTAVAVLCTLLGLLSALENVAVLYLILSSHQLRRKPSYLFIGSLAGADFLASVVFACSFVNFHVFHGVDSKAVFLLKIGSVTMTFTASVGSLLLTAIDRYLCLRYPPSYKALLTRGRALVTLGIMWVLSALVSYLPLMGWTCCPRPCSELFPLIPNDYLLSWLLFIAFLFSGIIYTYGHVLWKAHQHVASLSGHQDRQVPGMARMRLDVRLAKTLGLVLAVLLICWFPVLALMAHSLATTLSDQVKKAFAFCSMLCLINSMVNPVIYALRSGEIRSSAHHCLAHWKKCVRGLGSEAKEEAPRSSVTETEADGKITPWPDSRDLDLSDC
Sequence of Cannabinoid receptor 1 (P21554 whole entry): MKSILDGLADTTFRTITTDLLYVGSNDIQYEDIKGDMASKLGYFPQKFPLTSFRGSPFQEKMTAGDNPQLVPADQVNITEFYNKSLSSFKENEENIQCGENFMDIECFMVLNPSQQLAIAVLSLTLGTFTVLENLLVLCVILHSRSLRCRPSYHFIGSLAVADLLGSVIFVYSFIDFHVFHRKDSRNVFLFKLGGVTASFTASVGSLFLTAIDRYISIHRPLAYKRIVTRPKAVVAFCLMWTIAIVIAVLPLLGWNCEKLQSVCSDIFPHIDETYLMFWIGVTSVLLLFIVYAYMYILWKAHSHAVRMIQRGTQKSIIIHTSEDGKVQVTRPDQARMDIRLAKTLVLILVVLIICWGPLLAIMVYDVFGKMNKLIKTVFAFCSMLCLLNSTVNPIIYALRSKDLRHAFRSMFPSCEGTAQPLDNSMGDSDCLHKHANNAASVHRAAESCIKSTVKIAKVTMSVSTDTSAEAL

Structure (SMILES) | Ki (Cannabinoid receptor 2) | Ki (Cannabinoid receptor 1) | IC50 [1]
CCCC(C)(C)c1ccc2c(c1)OC(C)(C)[C@@H]1CC=C(C)C[C@@H]21 | 0.013 µM |  | 
C=C(C)CC[C@@H]1[C@H](C(=C)CC/C=C/C(=O)NCc2ccc(O)c(OC)c2)CC1(C)C [(E)-6-((1R,2R)-3,3-Dimethyl-2-(3-methylbut-3-enyl)cyclobutyl)-N-(4-hydroxy-3-methoxybenzyl)hepta-2,6-dienamide (11e)] | > 10 µM | > 10 µM | 7.1 µM
C=C(C)CC[C@@H]1[C@H](C(=C)CC/C=C/C(=O)NCCC)CC1(C)C [(E)-6-((1R,2R)-3,3-Dimethyl-2-(3-methylbut-3-enyl)cyclobutyl)-N-propylhepta-2,6-dienamide (11a)] | 1.01 µM |  | 6.3 µM
C=C(C)CC[C@@H]1[C@H](C(=C)CC/C=C/C(=O)NCCCl)CC1(C)C [(E)-N-(2-Chloroethyl)-6-((1R,2R)-3,3-dimethyl-2-(3-methylbut-3-enyl)cyclobutyl)hepta-2,6-dienamide (11c)] | 1.43 µM |  | > 10 µM
C=C(C)CC[C@@H]1[C@H](C(=C)CC/C=C/C(=O)NCCc2ccc(O)c(O)c2)CC1(C)C [(E)-N-(3,4-Dihydroxyphenethyl)-6-((1R,2R)-3,3-dimethyl-2-(3-methylbut-3-enyl)cyclobutyl)hepta-2,6-dienamide (11f)] | 6.5 µM | > 10 µM | > 10 µM
C=CCNC(=O)/C=C/CCC(=C)[C@@H]1CC(C)(C)[C@@H]1CCC(=C)C [(E)-N-Allyl-6-((1R,2R)-3,3-dimethyl-2-(3-methylbut-3-enyl)cyclobutyl)hepta-2,6-dienamide (11b)] | 0.68 µM |  | 2.7 µM
C=C1CC/C=C(\C)CC[C@@H]2[C@H]1CC2(C)C [β-humulene] |  | > 10 µM | > 10 µM
